Data reported in ChEMBL document CHEMBL1201862, “PubChem BioAssay data set” (2004).
Activity calls are given as the source filed them.

Key:
[1] = target: Major prion protein (Homo sapiens, UniProt P04156); type: functional, cell-based
[2] = cells
[3] = cells; type: functional, cell-based
[4] = target: T1, Nuclear receptor subfamily 0 group B member 1 (Homo sapiens, UniProt P51843); type: functional, cell-based;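 also: HEK293T cells transfected with SF-1 and DAX-1 plus StAR promoter luciferase reporter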
T1 sequence (P51843 whole entry): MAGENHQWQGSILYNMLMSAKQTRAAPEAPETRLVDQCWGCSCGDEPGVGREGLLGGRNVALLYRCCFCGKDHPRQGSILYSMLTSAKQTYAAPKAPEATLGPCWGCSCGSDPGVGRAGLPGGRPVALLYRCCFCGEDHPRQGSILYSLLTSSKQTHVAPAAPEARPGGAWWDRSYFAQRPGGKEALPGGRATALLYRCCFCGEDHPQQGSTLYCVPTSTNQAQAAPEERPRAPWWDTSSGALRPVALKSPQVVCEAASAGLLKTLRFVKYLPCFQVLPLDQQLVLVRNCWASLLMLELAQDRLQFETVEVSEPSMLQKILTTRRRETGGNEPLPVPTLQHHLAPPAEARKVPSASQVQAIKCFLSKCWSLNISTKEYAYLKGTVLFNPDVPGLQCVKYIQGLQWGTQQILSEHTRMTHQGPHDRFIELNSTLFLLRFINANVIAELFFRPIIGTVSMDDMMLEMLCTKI

[5] = LGR2 antagonists, dose response, cell-based, HEK293, CRE-luciferase reporter, cherry pick, set 2 (AID 743343); type: functional;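 also: transfected cells were stimulated with diluted bursicon conditioned medium after compound addition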
[6] = MC4R antagonists, dose response, counter-screen for LGR2 antagonist project, cell-based, plate reader, cherry pick (AID 743444); type: functional;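 also: transfected HEK 293 cells stimulated with alpha-MSH peptide; potency of inhibitors of the alpha-MSH evoked signal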
[7] = HEK293 cell cytotoxicity, dose response, cytotoxicity control, plate reader, cherry-picked samples (AID 743446); type: functional, cell-based
[8] = P. falciparum 3D7-ScDHODH growth inhibitors, dose response, SYBR Green, dry powder samples (AID 1159570); type: functional, cell-based;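 also: parasite growth measured after 72 hours of compound exposure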
[9] = HepG2 cell cytotoxicity, dose response, cytotoxicity control, plate reader, dry powder samples (AID 1159569); type: functional, cell-based;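 also: inhibitor potency with signal falling toward the positive control level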
[10] = P. falciparum Dd2 growth inhibitors, dose response, SYBR Green, cherry-picked samples (AID 1159567); type: functional, cell-based
[11] = P. falciparum Dd2 growth inhibitors, dose response, SYBR Green, dry powder samples (AID 1159566); type: functional, cell-based;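 also: potency for growth inhibition with lower SYBR green DNA signal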
[12] = P. falciparum ATP4 D1247Y mutant growth inhibitors, dose response, NITD609-resistant line, SYBR Green, dry powder (AID 1159571); type: functional, cell-based;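 also: parasites synchronized at ring stage by sorbitol before testing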
[13] = target: Kallikrein-7 (Homo sapiens, UniProt P49862); test: Fluorescence Intensity-based biochemical primary high throughput dose response assay to identify activators of kallikrein-7 (K7) zymogen.
[14] = target: T2, Exodeoxyribonuclease V (Escherichia coli (strain K12), UniProt P04993+P07648+P08394); test: E. coli RecBCD inhibitors, dose response, counter-screen for AddAB inhibitor project, absorbance, V66 E. coli, mutant T4 phage (AID 492957); type: functional, cell-based, Escherichia coli str. K-12 substr. MG1655
T2 sequence (P04993 whole entry): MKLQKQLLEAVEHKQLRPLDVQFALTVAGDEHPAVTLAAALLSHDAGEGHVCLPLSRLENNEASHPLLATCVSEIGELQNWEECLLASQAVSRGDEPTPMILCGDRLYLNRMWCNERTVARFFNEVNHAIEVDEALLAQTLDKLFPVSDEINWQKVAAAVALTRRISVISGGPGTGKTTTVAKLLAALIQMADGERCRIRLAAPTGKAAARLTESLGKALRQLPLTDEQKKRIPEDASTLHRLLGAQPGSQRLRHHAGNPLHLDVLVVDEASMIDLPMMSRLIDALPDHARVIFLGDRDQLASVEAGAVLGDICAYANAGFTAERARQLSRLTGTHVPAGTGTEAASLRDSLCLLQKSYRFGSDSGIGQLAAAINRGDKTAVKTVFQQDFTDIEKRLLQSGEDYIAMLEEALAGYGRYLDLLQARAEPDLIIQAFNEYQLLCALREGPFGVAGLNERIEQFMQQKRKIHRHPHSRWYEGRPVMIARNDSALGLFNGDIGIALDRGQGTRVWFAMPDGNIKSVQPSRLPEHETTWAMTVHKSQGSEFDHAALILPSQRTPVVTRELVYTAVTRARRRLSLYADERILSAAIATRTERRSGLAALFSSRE
T2 sequence (P07648 whole entry): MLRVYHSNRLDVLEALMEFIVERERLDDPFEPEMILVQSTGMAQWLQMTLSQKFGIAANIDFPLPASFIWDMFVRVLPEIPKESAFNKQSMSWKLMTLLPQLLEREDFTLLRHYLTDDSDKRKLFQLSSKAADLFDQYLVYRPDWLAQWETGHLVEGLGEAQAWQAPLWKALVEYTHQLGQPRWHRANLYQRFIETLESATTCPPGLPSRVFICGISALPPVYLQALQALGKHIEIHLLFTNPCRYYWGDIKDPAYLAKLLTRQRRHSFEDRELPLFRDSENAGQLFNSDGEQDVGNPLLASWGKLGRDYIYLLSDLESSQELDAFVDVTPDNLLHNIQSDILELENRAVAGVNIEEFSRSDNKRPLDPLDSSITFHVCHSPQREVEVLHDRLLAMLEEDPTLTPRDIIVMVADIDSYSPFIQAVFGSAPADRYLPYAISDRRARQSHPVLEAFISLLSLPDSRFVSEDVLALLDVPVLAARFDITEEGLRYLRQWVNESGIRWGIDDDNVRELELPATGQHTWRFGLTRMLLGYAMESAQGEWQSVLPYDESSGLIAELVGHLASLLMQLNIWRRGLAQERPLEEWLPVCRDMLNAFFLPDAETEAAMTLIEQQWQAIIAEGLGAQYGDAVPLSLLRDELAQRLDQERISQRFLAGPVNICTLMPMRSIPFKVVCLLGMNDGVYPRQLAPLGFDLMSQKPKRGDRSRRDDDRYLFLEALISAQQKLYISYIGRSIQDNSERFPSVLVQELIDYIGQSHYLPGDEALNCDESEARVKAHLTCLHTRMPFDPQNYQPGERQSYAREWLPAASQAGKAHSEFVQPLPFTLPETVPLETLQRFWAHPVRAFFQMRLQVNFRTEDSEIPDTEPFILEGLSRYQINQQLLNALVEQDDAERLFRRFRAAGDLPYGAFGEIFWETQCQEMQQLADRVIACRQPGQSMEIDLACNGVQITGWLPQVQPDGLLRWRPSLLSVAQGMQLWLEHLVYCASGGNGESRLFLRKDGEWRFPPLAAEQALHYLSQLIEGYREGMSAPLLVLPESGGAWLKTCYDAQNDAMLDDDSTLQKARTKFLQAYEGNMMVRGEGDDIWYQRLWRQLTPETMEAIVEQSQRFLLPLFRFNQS
T2 sequence (P08394 whole entry): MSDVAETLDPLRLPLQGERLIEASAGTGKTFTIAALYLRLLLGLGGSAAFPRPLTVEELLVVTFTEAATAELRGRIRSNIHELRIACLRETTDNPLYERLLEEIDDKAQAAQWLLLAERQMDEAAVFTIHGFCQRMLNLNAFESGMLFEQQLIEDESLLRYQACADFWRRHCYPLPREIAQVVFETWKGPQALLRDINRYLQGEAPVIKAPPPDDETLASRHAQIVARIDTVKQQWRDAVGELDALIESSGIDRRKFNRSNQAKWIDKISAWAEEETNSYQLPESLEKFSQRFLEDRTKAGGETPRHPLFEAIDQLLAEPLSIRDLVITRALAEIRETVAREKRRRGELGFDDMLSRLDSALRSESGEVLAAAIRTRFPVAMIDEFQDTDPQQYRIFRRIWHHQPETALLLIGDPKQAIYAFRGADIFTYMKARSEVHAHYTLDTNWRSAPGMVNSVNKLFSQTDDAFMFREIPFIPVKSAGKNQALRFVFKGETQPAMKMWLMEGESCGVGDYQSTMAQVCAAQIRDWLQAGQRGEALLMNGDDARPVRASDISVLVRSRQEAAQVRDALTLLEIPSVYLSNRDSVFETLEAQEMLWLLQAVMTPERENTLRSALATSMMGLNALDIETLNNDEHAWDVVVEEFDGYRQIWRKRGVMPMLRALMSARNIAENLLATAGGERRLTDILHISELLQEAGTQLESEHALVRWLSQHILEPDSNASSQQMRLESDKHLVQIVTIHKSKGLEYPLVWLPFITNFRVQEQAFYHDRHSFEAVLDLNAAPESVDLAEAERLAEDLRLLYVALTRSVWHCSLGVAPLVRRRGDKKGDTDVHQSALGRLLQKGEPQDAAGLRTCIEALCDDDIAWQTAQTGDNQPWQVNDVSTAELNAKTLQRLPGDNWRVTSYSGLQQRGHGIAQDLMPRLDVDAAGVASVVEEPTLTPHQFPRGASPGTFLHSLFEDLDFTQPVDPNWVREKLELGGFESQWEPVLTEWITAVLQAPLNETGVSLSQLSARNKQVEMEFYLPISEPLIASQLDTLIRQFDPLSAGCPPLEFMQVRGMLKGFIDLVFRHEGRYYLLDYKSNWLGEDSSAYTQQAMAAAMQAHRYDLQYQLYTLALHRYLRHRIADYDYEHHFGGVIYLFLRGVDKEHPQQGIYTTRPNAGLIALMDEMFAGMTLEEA

[15] = Counterscreen for AddAB inhibitors: absorbance-based bacterial cell-based high throughput dose response assay for inhibitors of bacterial viability. [Related pubchem assays (depositor defined):AID435030, AID449728, AID449731, AID488942, AID488955, AID488956]; type: functional
[16] = Shn3 3'UTR reporter inhibitors, dose response, cell-based, Clone20 osteoblasts, firefly luciferase, cherry-picked (AID 624132); type: functional;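 also: firefly luciferase luminescence from reporter carrying the Shn3 3'UTR in osteoblasts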
[17] = HepG2 cell cytotoxicity, dose response, cytotoxicity control for Shn3 inhibitor project, CellTiter-Glo, cherry-picked (AID 624134); type: functional, cell-based
[18] = target: Photoreceptor-specific nuclear receptor (Homo sapiens, UniProt Q9Y5X4); type: functional, cell-based;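 also: CHO-S cells with Gal4-NCOR and VP16-NR2E3 two-hybrid luciferase reporter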
[19] = target: T3, Long-chain-fatty-acid--AMP ligase FadD28 (Mycobacterium tuberculosis, UniProt P9WQ59); test: Fluorescence polarization aasay to screen for inhibitors that compete for the binding of FadD28 to a bisubstrate Measured in Biochemical System Using Plate Reader - 2147-01_Inhibitor_Dose_CherryPick_Activity.; type: functional, Mycobacterium tuberculosis H37Rv
T3 sequence (P9WQ59 whole entry): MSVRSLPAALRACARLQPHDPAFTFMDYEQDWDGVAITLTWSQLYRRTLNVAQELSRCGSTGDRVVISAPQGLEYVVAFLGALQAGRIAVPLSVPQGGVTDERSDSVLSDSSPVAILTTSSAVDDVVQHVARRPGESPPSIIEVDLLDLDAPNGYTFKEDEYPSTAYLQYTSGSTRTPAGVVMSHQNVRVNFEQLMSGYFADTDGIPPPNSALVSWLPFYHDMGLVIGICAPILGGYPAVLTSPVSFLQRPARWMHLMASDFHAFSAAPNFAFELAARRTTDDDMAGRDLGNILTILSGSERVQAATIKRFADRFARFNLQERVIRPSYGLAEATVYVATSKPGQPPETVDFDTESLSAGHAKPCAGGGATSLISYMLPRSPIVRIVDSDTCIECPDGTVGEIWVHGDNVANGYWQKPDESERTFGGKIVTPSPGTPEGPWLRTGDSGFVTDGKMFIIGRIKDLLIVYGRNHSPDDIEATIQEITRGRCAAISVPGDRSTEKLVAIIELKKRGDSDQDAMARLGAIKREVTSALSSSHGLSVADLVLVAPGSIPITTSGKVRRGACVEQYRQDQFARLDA

[20] = target: T4, Probable nicotinate-nucleotide adenylyltransferase (Staphylococcus aureus (strain N315), UniProt P65502); type: functional, Staphylococcus aureus subsp. aureus N315;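 as to IC50 Mean: confirmatory dose-response retesting of NadD inhibitor hits first found in an ultra-high-throughput screen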
[21] = target: T4, Probable nicotinate-nucleotide adenylyltransferase; type: functional, Staphylococcus aureus subsp. aureus N315; details: read-out: IC50_Mean
[22] = cells; type: functional, cell-based; remark: listed apart in the source
[23] = cells; type: functional, cell-based; remark: listed apart in the source

COc1ccc(OC)c(C2NC(=O)N(C)C(C)=C2C(=O)OCc2ccccc2)c1 (stereo not given)
IC50 [1]: 6.04 µM (active)
IC50 [2]: > 138 µM (inactive)

Cc1cc(C(=O)CSc2nnc(N)s2)c(C)n1Cc1cccs1
IC50 [3]: > 67.5 µM (inactive)
IC50 [4]: > 0.278 µM (active)
AC50 [5]: 3.93 µM (active)
AC50 [6]: 4.27 µM (active)
AC50 [7]: > 52 µM (inactive)

CN(C)C(=O)c1cccc(-c2cccc(-c3nc(C(=O)NC4CCCCC4)cc4c3[C@@H](CCO)N([S@+]([O-])C(C)(C)C)C4)c2)c1
AC50 [8]: 0.806 µM (active)
AC50 [9]: 31.4 µM (active)
AC50 [10]: 1.62 µM (active)
AC50 [11]: 0.232 µM (active)
AC50 [12]: 0.484 µM (active)

COc1ccc(NC(=O)c2ccc(S(=O)(=O)N3CC(C)CC(C)C3)cc2)cc1S(N)(=O)=O (stereo not given)
EC50 [13]: 14.7 µM (inactive)

O=C(Nc1cccc(F)c1)N1CCCCN2[C@@H](CO)[C@H](c3ccc(C#Cc4cccnc4)cc3)[C@@H]2C1
AC50 [8]: 0.247 µM (active)
AC50 [9]: 28.4 µM (active)
AC50 [10]: 0.606 µM (active)
AC50 [11]: 0.368 µM (active)
AC50 [12]: 0.425 µM (active)

c1ccc(-c2cc(CSc3nc4ccccc4[nH]3)on2)cc1
IC50 [14]: > 119 µM (inactive)
IC50 [15]: > 119 µM (inactive)
AC50 [16]: 3.76 µM (active)
AC50 [17]: 58.3 µM (active)
IC50 [18]: 4.61 µM (active)

CCc1c(O)n(-c2ccccc2)c(SCC(=O)Nc2nc3ccccc3s2)nc1=O
AC50 [19]: > 100 µM (inactive)

COc1ccc(-c2nc3c(C)cc(Br)cn3c2Cc2cccc(Cl)c2)cc1OC
IC50 [1]: 7.52 µM (active)
IC50 [2]: > 138 µM (inactive)

Cc1ccc(NCc2nnc(SCC(=O)c3ccccc3)n2Cc2ccco2)c(C)c1
IC50 [20]: 12.1 µM (active)
IC50 [21]: 23 µM (active)

Cc1oc2c(c(C)cc3oc(=O)c(CC(=O)N[C@@H](CCCNC(N)=O)C(=O)O)c(C)c32)c1C
EC50 [13]: 69.3 µM (inactive)

c1ccc(N/N=C(\Cc2ncc[nH]2)c2ccccc2)cc1
IC50 [22]: > 29.9 µM (inactive)
EC50 [23]: > 29.9 µM (inactive)

O=c1c2cc(N3CCOCC3)ccc2[nH]c(=S)n1CCCN1CCCCC1
EC50 [13]: 29.7 µM (inactive)

COc1ccc(S(=O)(=O)N2CCOCC2)cc1NC(=O)CSc1ncnc2ccccc12
IC50 [1]: 2.66 µM (active)
IC50 [2]: > 138 µM (inactive)

O=C(COC(=O)c1cccc(NS(=O)(=O)c2ccc(F)c(F)c2)c1)NC(=O)NC1CCCCC1
AC50 [19]: 19.9 µM (active)
